Test results published in US11352604B2, “Method of making cardiomyocytes from human pluripotent cells” (Wisconsin Alumni Research Foundation, priority 2016, dated 2022).

Legend:
Format in all cases: cell-based, human
[1] = tested on: hPSC-derived cardiac progenitors and hPSC-CMs; assay: RT-qPCR gene expression in progenitors or cardiomyocytes
Description: Frozen cell pellets from progenitors or cardiomyocytes in the 19-9-11 iPS cell line were thawed and RNA isolated using RNeasy spin columns with on-column DNase treatment according to the manufacturer's instructions (Qiagen). 500 ng of isolated RNA was used as template for reverse transcription using Biorad iScript RT supermix according to the manufacturer's instructions. 2.5 ng of derived cDNA was then used as template in qPCR with Taqman® primers bearing FAM-MGB dyes for genes of interest in a 20 μL reaction with Taqman® universal PCR supermix and the manufacturer's recommended cycling conditions (Thermo Fisher Scientific).

hPSC-CMs [2] = assay: Cardiomyocyte yield from dissociated and replated progenitors; details: primed vs untreated
Description: For dissociation of day 5 cells (for destructive analyses or live cell replating experiments), progenitors were dissociated with Versene (Thermo Fisher Scientific) for 10 minutes at 37° C., pipetted up and down 40 times, and then neutralized 1:1 v/v versene solution with “K20” medium (DMEM/F12 with 1×NEAA, 1× Glutamine, 0.1 mM (3-mercaptoethanol, and 20% Knockout Serum Replacer by volume, all Thermo Fisher Scientific). For destructive analyses, pellets were made by centrifugation at 1.1×1000 g for 5 minutes, aspiration of medium supernatant, snap-freezing in liquid nitrogen, and kept at −80° C. for until pellet lysis for DNA, protein, or RNA isolation.
For replating of progenitors and microtissue formation, after neutralization and cell counting, 0.8 million day-5 progenitors per well were spun down at 100×g as above and resuspended and plated in 1 mL K20 with 10 μM Y-27632 ROCK-inhibitor (Tocris) into Synthemax® II-SC coated 12 well plates (Corning). Media was then changed daily in 2 mL of “K2” (same formulation as K20 above, but with just 2% Knockout Serum Replacer), and changed daily. Differentiating hPSC-CMs from replated progenitors in this protocol beat by day 8 to 12.

hPSC-CMs [3] = assay: Cardiomyocyte yield and purity in GiWi differentiation; details: day 30, pI:C alone vs untreated
Description: To differentiate cardiomyocytes from hPSCs, the small molecule temporal modulation of the Wnt pathway (GiWi) monolayer protocol was used essentially as previously described (Lian et al., 2012). Human embryonic or induced pluripotent stem cells were dissociated with Versene (Thermo Fisher Scientific) for 6 minutes at 37° C., pipetted up and down 40 times, counted with a hemocytometer, spun down at 100×g for 5 minutes, and resuspended and seeded for differentiation at 1.5 million cells per well in 6 well plates or 0.4 million per well in 12 well plates in mTeSR® on stem-cell verified Matrigel® (WiCell) containing 10 μM Y-27632 ROCK-inhibitor (Tocris). After four days in mTeSR® (WiCell), at which point cells grew to 100 percent confluence, medium was switched to RPMI supplemented with B27 supplement not containing insulin (Thermo Fisher Scientific) and containing 12 μM of the Wnt agonist CHIR99021 (Tocris) for exactly 24 hours. Media was then changed to RPMI supplemented with B27 not containing insulin for exactly 48 hours. Then medium was then switched at day 3 to RPMI supplemented with B27 not containing insulin and containing 5 μM IWP2 (Tocris). At day 5, media was switched to RPMI supplemented with B27 not containing insulin for two days. At day 7 and every three days afterward, medium was replaced with RPMI supplemented with B27 containing insulin (Thermo Fisher Scientific). […]

hPSC-CMs [4] = assay: Immunofluorescence cell size (area of cTnT staining); details: day 30, pI:C-treated vs untreated progenitors
Description: For internal antigens, cells were rinsed of media two times in PBS, fixed for 10 minutes in 4% paraformaldehyde at RT, rinsed three times again in PBS, then blocked for 1 hour at room temperature (RT) in Licor blocking buffer containing 0.2% Triton x-100 (Sigma). Blocking solution was aspirated and antibodies added overnight at 4° C. in fresh blocking/permeabilization solution. Antibodies used were mouse cardiac troponin T (Thermo Fisher Scientific, 1:200), rabbit WT1 (Abcam 1:200), mouse smooth muscle myosin heavy chain (Abcam, 1:200), goat Jag1 c-terminal domain (1:200 Abcam), MMP1 (Abcam, 1:200), mouse cardiac actin (Sigma, 1:200), rabbit SLC25A4 (Proteintech, 1:100), rabbit DBT (Proteintech, 1:100), rabbit ATP5F1 (Proteintech, 1:100), rabbit Irx4 (Abcam, 1:200), goat nkx2.5 (Santa Cruz, 1:50), mouse connexin 40 (Thermo Fisher Scientific, 1:200), and fibroblast-specific protein (Abcam, 1:100). After primary and secondary antibodies, cells were rinsed two times in PBS with 0.2% triton x-100. Donkey secondaries conjugated to Alexa Fluor dyes were used at 1:1000 and incubated at RT for 1 h. DAPI or Hoechst was used to visualize nuclei. Cells were imaged either on an EVOS system in wells (Thermo Fisher Scientific) or a Leica confocal microscope in cover glass or ibidi 8-well microslides. Image J was used to quantify cell area by outer boundaries of cTnT staining.

hPSC-CMs [5] = assay: Optical action potential measurement (RH237)
Description: After hPSC-CM dissociation, day 30 to 60 lactate-purified hPSC-CMs from the 19-9-11 cell line were plated as 80 μL drops on areas of cover glass previously coated in drops of Synthemax® working solution of 80 μL (Corning) in the K20/2 dissociation and replating technique described above. After at least two days in K2 medium, the fast-equilibrating voltage-sensitive dye RH237 at 1 μM was added and live cells imaged in the cover glass in a Leica confocal microscope. Video files of individual cells were taken and filtered with the 50th FIR filter at a cutoff frequency of 128 Hz. The resulting action potentials were analyzed for rise time and voltage velocity in MATLAB. Individual cells were considered as replicates for statistical purposes and came from 4 cell preparations.

[6] = primed vs untreated cardiac progenitors, qPCR

Substance: polyinosinic-polycytidylic acid [pI:C]
- myofilament gene expression ([1]; day 9 cells, treated vs untreated progenitors): increased expression of all myofilament genes studied
- expression of cardiomyocyte maturation genes such as cTnI and αMHC ([1]; day 20 pPSC-CM, pI:C vs untreated): increased the expression levels
- expression of cardiac fibroblast genes (Thy1, MMP1, Collagen 1a, WT1) ([1]; pI:C treatment vs untreated): downregulated
- levels of type I HDAC1-3 [1, 6]: unchanged to unregulated levels
- levels of type II histone deacetylases (HDAC4-7) [1, 6]: universally lower levels
- increase in yield of cardiomyocytes (hPSC-CMs [2]; replated at high reseeding density): 4 fold
- increase in yield of cardiomyocytes (hPSC-CMs [2]; replated at lower density): 6 fold
- yield of cardiomyocytes (hPSC-CMs [3]): more than double the yield
- hPSC-CM cell size (hPSC-CMs [4]): twice as large
- optical upstroke velocity (rise time) (hPSC-CMs [5]; day 30 hPSC-CMs from pI:C-treated vs untreated progenitors): significantly faster
- APD80 (hPSC-CMs [5]; spontaneous action potentials): decrease
